# Results from US7271260B2, “3,4-dihydroquinazoline derivatives as T-type calcium channel blockers and method of preparing the same” (Korea Institute of Science and Technology, priority 2004, dated 2007).
# What was measured:
# [1] = test system: N-type (HVA) Ca2+ channel; test: Patch clamp of high voltage-activated calcium current in MPG (major pelvic ganglion) neurons; type: cell-based, rat; conditions: 10 μM; for selectivity for the sub-types of the calcium channel (T-type LVA vs N-type HVA): from Table 3; for Inhibitory effect, Ca2+ channel N-type (HVA): MPG neuron, n.i. = no inhibitory effect
# Experimental: (§1) In order to examine the selectivity of the compound of the present invention for other ion channels, the inhibitory effects of KYS05001, KYS05041 and KYS05042 on […] and high voltage-activated Ca2+ channel (HVA) were measured according to a conventional method (Lee, J.-H. et al., J. Neurophysiol. 2002, 87, 2844-2850) using MPG (major pelvic ganglion).
# (§2) Male Sprague-Dawley rats having about 250 g of an average body weight were employed as experimental animals. After the rats were anesthetized with sodium pentobarbital (50 mg/kg, i.p.), the abdomen was cut open immediately. MPG located on the left side of the prostate was extracted and then transferred in cold (4° C.) Hank's balanced salt solution (HBSS, GibcoBRL). The connective tissue encompassing the ganglion was stripped therefrom and a small gap was made carefully on the naked ganglion with a sharp knife. Then, the ganglion was cultured in 10 ml of modified Earle's balanced salt solution (EBSS, pH 7.4, GibcoBRL) supplemented with 0.7 mg/ml of collagenase (type D), 0.3 mg/ml of trypsin and 0.1 mg/ml of DNAse type I at 35° C. for 1 hour (Zhu et al., J. Physiol. Lond. 1995, 489, 363-375). At this time, 3.6 g/l of glucose and 10 mM HEPES were added to EBSS. After the cultivation was completed, the culture flask was shaken to separate call clusters into a single nerve cell and subjected to centrifugation at 1000 rpm with a clinical centrifuge (International Equipment Company, Mass., U.S.A.). The separated single nerve cells were re-suspended in MEM (GibcoBRL) supplemented with 10% fetal bovine serum, 1% glutamine and 1% penicillin/streptomycin. They were then spread on a polystyrene culture dish (35 mm) coated with poly-L-lysine. The culture dish was incubated at 37° C. humidified incubator (95% air-5% CO2) and the cells were used in the following experiment within 24 hours after the separation.
# (§3) The voltage-dependent calcium and sodium current were recorded according to a typical patch clamping method using a patch clamp amplifier (Axopatch 1D, Axon Instruments, Foster City, Calif., U.S.A.) at a whole-cell ruptured configuration (Hamill et al., Pflügers Arch. 1981, 391, 85-100). An electrode was made from a borosilicate glass capillary tube (outer diameter; 1.65 mm, inner diameter; 1.2 mm, Corning 7052, Garner Glass Co., Claremont, Calif., U.S.A.) using P-97 Flaming-Brown micropipette puller (Sutter Instrument Co., Novato, Calif., U.S.A.) and forged smoothly by heating with a microforge. The electrode showing 1˜3 MΩ of resistance when filled with a solution was used for the following experiment. The culture dish containing the nerve cells was placed on an inverted microscope and the cell exterior solution was flowed into the dish at a flow rate of about 1˜2 ml/min. The membrane capacitance and series resistance were corrected by 80% or more with an amplifier. The voltage generation and record of calcium current were carried out using S4 software (provided by Dr. Stephen R. Ikeda, National Institute on Alcohol Abuse and Alcoholism, NIH, USA) equipped in Macintosh computer, which was connected to an analogue/digital converter (Digidata 1200, Axon Instruments Co.). The calcium current, which passed through a low band pass filter at 2˜5 kHz, was stored in Macintosh computer and analyzed with IGOR PRO (Wave-Metrics, Lake Oswego, Oreg., U.S.A.). All the experiments were conducted at a room temperature ranging from 20 to 22° C.
# (§4) The electrode for measuring the calcium current was filled with the solution comprising 120 mM N-methyl-D-glucamine (NMG) methanesulfonate (MS), 20 mM tetraethylammonium (TEA)-MS, 20 mM HCl, 11 mM EGTA, 10 mM HEPES, 1 mM CaCl2, 4 mM MgATP, 0.3 mM Na2GTP and 14 mM tris-phosphocreatine (pH 7.2, 290 mOsm). The extracellular infusion fluid was composed of 140 mM MS, 145 mM TEA-OH, 10 mM HEPES, 15 mM glucose, 10 mM CaCl2 and 0.0003 mM tetrodotoxin (TTX, pH 7.4, 320 mOsm). […]
# [2] = test system: Na+ channel; test: Patch clamp of sodium current in MPG (major pelvic ganglion) neurons; type: cell-based, rat; conditions: MPG neuron, 10 μM; for selectivity for the calcium channel versus the sodium channel: from Table 3; for Inhibitory effect, Na+ channel: n.i. = no inhibitory effect
# Experimental: as §1, §2, §3, §4
Structure (SMILES),selectivity for the sub-types of the calcium channel (T-type LVA vs N-type HVA) [1],"Inhibitory effect, Ca2+ channel N-type (HVA) [1]",selectivity for the calcium channel versus the sodium channel [2],"Inhibitory effect, Na+ channel [2]"
O=C(CC1c2ccccc2N=C(N2CCCCC2)N1c1ccccc1)NCc1ccccc1 (stereo not drawn) [KYS05001],selectively inhibited only the T-type (LVA) calcium channel,n.i.^b,higher selectivity for the calcium channel than the sodium channel,n.i.^b
"Cc1ccc(S(=O)(=O)Nc2ccc(CNC(=O)CC3c4ccccc4N=C(N4CCCCC4)N3c3ccccc3)cc2)cc1 (stereo not drawn) [KYS05041, 4-{N-[4-(4-methylbenzenesulfonylamido)benzyl]acetamido}-3-phenyl-2-(piperidine-1-yl)-3,4-dihydroquinazoline]",relatively lower selectivity,>89%,higher selectivity for the calcium channel than the sodium channel,n.i.^b
"O=C(CC1c2ccccc2N=C(N2CCCCC2)N1c1ccccc1)NCc1ccc(NS(=O)(=O)c2ccc(F)cc2)cc1 (stereo not drawn) [KYS05042, 4-{N-[4-(4-fluorobenzenesulfonylamido)benzyl]acetamido}-3-phenyl-2-(piperidine-1-yl)-3,4-dihydroquinazoline]",relatively lower selectivity,>90%,higher selectivity for the calcium channel than the sodium channel,n.i.^b
